Earlier results on one compound are cited in paper PMC6277767, “Broad and Region-Specific Impacts of the Synthetic Cannabinoid CP 55,940 in Adolescent and Adult Female Mouse Brains” (Frontiers in Molecular Neuroscience, 2018).

pEC50: −log10 of the molar value.

This series relates to CB1. To be noted: cited from earlier work.

For `CCCCCCC(C)(C)c1ccc([C@@H]2C[C@H](O)CC[C@H]2CCCO)c(O)c1` [CP 55,940], where the note is “cannabinoid receptors, ref Showalter et al., 1996, Besnard et al., 2012”, the “potency relative to THC” value is reported as roughly 10 fold. The negative-log EC50 (pEC50) (ref Brents et al., 2011, read-out: EC50, stimulated G-protein binding at CB1) is 8.47.

As a reminder, the pEC50 is the EC50 on a negative log10 scale, so that one unit is a factor of ten.
